Measured values published in patent US20230095558A1, “IMMUNE CHECKPOINT TIM3-TARGETING BINDING PEPTIDE AND APPLICATION THEREOF” (Sparx Biotech (Jiangsu) Co., Ltd., priority 2020, published 2023).
No end group written: not given here.

Tests used:
TIM3 protein = biological target: T1, TIM3 protein (Homo sapiens, UniProt Q8TDQ0); assay: SPR affinity of TIM3-targeting binding peptides to immobilized TIM3 protein; conditions: TIM3 sensor chip, dissociation rate
T1 sequence (Q8TDQ0 22-301): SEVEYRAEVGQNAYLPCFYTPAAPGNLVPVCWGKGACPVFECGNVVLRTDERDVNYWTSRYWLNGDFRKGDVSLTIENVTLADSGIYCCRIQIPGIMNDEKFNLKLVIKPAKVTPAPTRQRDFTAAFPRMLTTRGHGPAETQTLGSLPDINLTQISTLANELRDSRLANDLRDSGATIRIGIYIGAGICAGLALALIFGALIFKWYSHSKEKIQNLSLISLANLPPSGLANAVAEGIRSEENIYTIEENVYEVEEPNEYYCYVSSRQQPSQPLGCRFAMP
Protocol: The binding properties of the TIM3-targeting binding peptides to TIM3 and their competition experiments with Galectin-9-bound TIM3 were identified by flow cytometry and surface plasmon resonance (SPROpenSPR, Nicoya, V3.01) detection.
SPR assay: Affinity identification between the TIM3-targeting binding peptides and TIM3 was performed by immobilizing TIM3 protein (50 μg/mL) on the surface of a nanogold sensor chip upon activation of EDC/NHS. The TIM3-targeting binding peptides were diluted with buffer (PBS, pH 7.4) to concentrations of […], 19.5 μM, 39 μM and 78 μM, respectively. The competitive binding ability of the TIM3-targeting binding peptides to the ligand was identified by immobilizing the Galectin-9 protein (25 μg/mL) on a sensor chip at a detection concentration of 100 μg/mL for the TIM3-targeting binding peptides, and at a concentration of the mixed sample of 100 μg/mL TIM3-targeting binding peptides and 10 μg/mL TIM3 protein. The detection sample was loaded at a flow rate of 20 μL/min for about 7 min according to the instrument instructions. The KD, ka and kd values were calculated and analyzed by Trace Drawer Evaluation (version 2.0) software.

CD4+ T cells = assay: Mixed lymphocyte reaction (DCs + CD4+ T cells), cytokine ELISA; type: cell-based, human; conditions: MLR; for expression level of INF-γ: ELISA on day 5, vs control groups (P<0.01 or P<0.05)
Protocol: Identification of the functional activity of TIM3-targeting binding peptides was performed by evaluating the levels of activation and proliferation of T cells, i.e., the levels of expression of IL-2 and IFN-γ cytokines. First, Dendritic Cells (DCs) and CD4+T cells were obtained by magnetic bead sorting, and then the levels of IFN-γ cytokines and IL-2 were detected by a Mixed Lymphocyte Reaction (MLR) experiment simulating close to human physiological environment and an ELISA experiment, to identify biological activities of the TIM3-targeting binding peptides.
Culture of Dendritic cells (DCs): Isolated dendritic cells (DCs) were cultured in Mo-DC differentiation medium (10^7 cells/10 mL medium), and 10 mL of the same medium was added to the cells after 3 days (the cells were cultured in the differentiation medium at 37° C., 5% CO2 and >95% humidity for 6 days). On day 7, DCs were resuspended in Mo-DC mature medium and cultured for further 3 days by addition of the Mo-DC differentiation medium. Matured DC and newly isolated T cells (DC and T cells from different donors) were mixed for mixed lymphocyte reaction. Approximately 1×10^4 DCs and 1×10^5 T cells per well were mixed and cultured in 200 μL RPMI-1640 medium with 10% FBS. To evaluate the activity (gradient action), competitive inhibition (P26 and ligand), synergistic effect (TIM3-targeting binding peptides and the PD-1 inhibitor Opdivo) of the binding peptides TIM3-targeting binding peptides, the corresponding concentrations of peptides, Opdivo, Galectin-9 were added to the corresponding wells to interact with the cells. The expression levels of IFN-γ (or IL-2) secreted in the cell supernatant were measured on day 5.
T cell activity were tested according to the instructions of the ELISA kit. Briefly, the capture antibody dilutions were coated on a 96-well plate overnight (24 hours) at room temperature at a concentration of 2 μg/mL in a volume of 100 μL. On the following day, the capture antibody solution was aspirated and the wells were washed three times with 300 μL wash buffer PBST (0.05% Tween®20, pH 7.2-7.4). Thereafter, the test wells were blocked with 300 μL of 1% BSA-PBS for 1 hour. After blocking, the test wells were washed in the same manner as above and 100 μL of the test samples or standards (in 1% BSA-PBS) were pipetted into each well for 2 hours. Thereafter, the detection antibody (125 ng/mL, 100 μL) was added to each well according to the instructions of the human IFN-γ/IL-2 Duo Set ELISA kit, and incubated for 2 hours. Then, HRP (100 μL, incubated for 20 minutes) and TMB (100 μL) were added. At the end of each step, each well was washed in the same manner as described above. After completion of the color development, the test wells were terminated with 12.5% H2SO4 (50 μL/well) and read on an ELISA plate reader at a wavelength of 450/570 nm. All experimental test wells were repeated.

MC38-hPDL1 tumor = assay: In vivo anti-tumor growth in MC38-hPDL1 tumor-bearing mice humanized with TIM3; design: species or system C57BL/6J mice transduced with the human TIM3 gene; conditions: 21 days, intraperitoneal, P26 5 mg/kg QD, ATE 10 mg/kg twice a week
From the text: In this example, the anti-tumor growth effect of the TIM3-targeting binding peptides was farther examined in mice. The tumor inhibitory effect of the TIM3-targeting binding peptides on C57BL/6J MC38-hPDL1 tumor-bearing mice humanized with TIM3 was detected by the following experimental steps: 1. Inoculation of mice: […]-hPDL1 tumor cells (1×10^6 cells/mouse) were inoculated subcutaneously into C57BL/6J mice transduced with the human TIM3 gene. 2. Grouping: Mice were randomly divided into 4 groups with 7 mice per group when tumors reached 80 100 mm^3. 3. Administration: PBS (negative control), PD-L1 humanized antibody (positive control), polypeptides alone (experimental group) and polypeptides plus PD-L1 humanized antibody (synergistic effect group) were administered intraperitoneally to mice in each group, respectively. The amount of antibody used was 10 mg/kg twice a week. The amount of polypeptide was 5 mg/kg once daily. Tumor size and body weight of the mice were measured every 3 days. 4. Post-administration treatment: mice were euthanized 3 weeks after administration. Tumors were isolated, weighed, and photographed.

Sequence | koff (TIM3 protein) | expression level of INF-γ (CD4+ T cells) | tumor volumes (MC38-hPDL1 tumor; compared to control group) | growth of the tumor (tumor weight) (MC38-hPDL1 tumor; vs control group P<0.05) | reversal of Galectin-9-mediated inhibition of CD4+ T cell activation (IFN-γ and IL-2 expression levels) (CD4+ T cells; P26 100 μg/mL, Galectin-9 5 μg/mL, ELISA)
FTYAHPVSHRWESSVHVDQW [K2] | 1.03×10^−2 S^−1 | significantly increased |  |  | 
QNPPLENTVYQEPFWQHAVD (A TIM3-targeting binding peptide) [K7, 20-peptide targeting TIM3] |  | significantly increased |  |  | 
SQEVFAWTFSPRWTTAPKAL [K3] | 1.32×10^−2 S^−1 | significantly increased |  |  | 
GSWNTFRAQPTI [P24, GSWNTFRAQPTI] | 1.69×10^−5 S^−1 |  |  |  | 
ALWPSSSMSSTI [P1303, ALWPSSSMSSTI] | 3.08×10^−3 S^−1 | significantly increased |  |  | 
ADFRVMADMSMY [P29, ADFRVMADMSMY] | 7.47×10^−3 S^−1 | significantly increased |  |  | 
HYEADPYEAWYDAWDDIHTY (A TIM3-targeting binding peptide) [K1, 20-peptide targeting TIM3] |  | significantly increased |  |  | 
SHDTRSPFTWGR [P1307, SHDTRSPFTWGR] | 7.89×10^−3 S^−1 |  |  |  | 
TFLNSVPTYSYW (A TIM3-targeting binding peptide) [P1310, 12-peptide targeting TIM3] |  | significantly increased |  |  | 
WQQNNPHLWDVFLGVPRTTE [K5] | 1.60×10^−2 S^−1 | significantly increased |  |  | 
HDAFPRPHLFRN [P1301, HDAFPRPHLFRN] | 4.28×10^−3 S^−1 | significantly increased |  |  | 
GLIPLTTMHIGK (A TIM3-targeting binding peptide) [P26, 12-peptide targeting TIM3] |  | significantly increased | tended to decrease | inhibited | reversed
SPFYYSGHQWVPHPRQAASY [K10] | 2.30×10^−2 S^−1 | significantly increased |  |  | 
